In US20250332173A1, “COMPOUNDS AND METHODS FOR MODULATING NUCLEIC ACID SPLICING” (REMIX THERAPEUTICS INC., priority 2021, published 2025):

Assays:
Target C = experiment: RT-qPCR splicing assay panel, Target C canonical junction (CJ) mRNA; type: cell-based, human; details: Homo sapiens; Table 5 panel; canonical junction qPCR; compound concentration having 50% response in CJ decrease; read-out: Target C IC50 (decrease in CJ mRNA levels)
Method in brief: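 K562/A673 cells, 11-pt 3-fold compound titration from 10 uM final, DMSO ≤0.25%, 24 h 37 °C 5% CO2; lyse (DNase I or Igepal/Tris buffer pH 7.4); RT-qPCR for CJ isoform vs housekeeping gene (GAPDH/GUSB/PPIA).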

MYB = experiment: HiBiT protein abundance assay, MYB HiBiT K562 cell line; type: cell-based, human; details: HiBiT K562 cell line, 24 hours, top dose 10 μM; read-out: Effect on protein abundance, MYB (IC50 category)
Method in brief: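 Endogenous targets in K562 knock-in lines carried a HiBiT tag and were treated for 24 h at 37 °C with 10-point 3-fold dilutions (top 10 μM final, DMSO ≤0.25%). Abundance was read as lytic Nano-Glo HiBiT luminescence. IC50 came from a four-parameter logistic fit of normalized response.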

## Cc1cn2nc(-c3cc(C)c4c(=O)n(C5CCNC6(CC6)C5)ccc4c3)cc(C)c2n1 (stereo in doubt) [Compound 397, (S)-6-(2,8-dimethylimidazo[1,2-b]pyridazin-6-yl)-8-methyl-2-(4-azaspiro[2.5]octan-7-yl)isoquinolin-1(2H)-one]
Target C
  IC50: 100 to 1000 nM
MYB
  IC50: < 100 nM

## Cc1cn2nc(-c3ccc4c(=O)n([C@@H]5CCNC[C@H]5F)ncc4c3)cc(C)c2n1 [Compound 379]
Target C
  IC50: 1000 to 10000 nM
MYB
  IC50: 100 to 1000 nM

## Cc1nc2c(C)cc(-c3cc(F)c4c(=O)n(C5CCNC6(CC6)C5)ccc4c3)cc2o1 (stereo not shown) [Compound 418, 2-{4-azaspiro[2.5]octan-7-yl}-6-(2,4-dimethyl-1,3-benzoxazol-6-yl)-8-fluoroisoquinolin-1-one]
Target C
  IC50: 100 to 1000 nM
MYB
  IC50: < 100 nM

## Cc1cc(-c2cc(F)c3c(=O)n(C4CCNC5(CC5)C4)ccc3c2)nc2cn(C)nc12 (stereo not shown) [Compound 431]
Target C
  IC50: 100 to 1000 nM
MYB
  IC50: < 100 nM

## Cc1cn2nc(-c3cc(F)c4c(=O)n([C@@H]5CCNC6(CC6)C5)ncc4c3)cc(C)c2n1 [Compound 446]
Target C
  IC50: < 100 nM
MYB
  IC50: < 100 nM

## Cc1cn2cc(-c3cc(O)c4c(=O)n(C5CCNC5)ccc4c3)cc(C#N)c2n1 (stereo not shown) [Compound 433, 6-(8-hydroxy-1-oxo-2-(pyrrolidin-3-yl)-1,2-dihydroisoquinolin-6-yl)-2-methylimidazo[1,2-a]pyridine-8-carbonitrile]
Target C
  IC50: 100 to 1000 nM
MYB
  IC50: 1000 to 10000 nM

## Cc1cn2cc(-c3ccc4c(=O)n([C@@H]5CCCNC5)ccc4c3)cc(F)c2n1 (single isomer, unassigned) [Compound 403]
Target C
  IC50: 1000 to 10000 nM
MYB
  IC50: 100 to 1000 nM

## Cn1cc2nc(-c3ccc4c(=O)n(C5CCNC6(CC6)C5)ncc4c3)ccc2n1 (stereo not shown) [Compound 511]
Target C
  IC50: 1000 to 10000 nM
MYB
  IC50: 100 to 1000 nM

## Cn1cc2cc(-c3cc(F)c4c(=O)n(C5CCNC6(CC6)C5)ccc4c3)c(O)c(F)c2n1 (stereo not shown) [Compound 420, 2-{4-azaspiro[2.5]octan-7-yl}-8-fluoro-6-(7-fluoro-6-hydroxy-2-methylindazol-5-yl)isoquinolin-1-one]
Target C
  IC50: 1000 to 10000 nM
MYB
  IC50: 100 to 1000 nM

## Cc1cn2cc(-c3cc(S(C)(=O)=O)c4c(=O)n(C5CCNCC5)ccc4c3)cc(F)c2n1 [Compound 409, 6-(8-fluoro-2-methylimidazo[1,2-a]pyridin-6-yl)-8-(methylsulfonyl)-2-(piperidin-4-yl)isoquinolin-1(2H)-one]
Target C
  IC50: > 10000 nM
MYB
  IC50: > 10000 nM

## Cc1cn2nc(-c3cc(O)c4c(=O)n(C5CCNCC5)ccc4c3)cc(C)c2n1 [Compound 391, 6-(2,8-dimethylimidazo[1,2-b]pyridazin-6-yl)-8-hydroxy-2-(piperidin-4-yl)isoquinolin-1(2H)-one]
Target C
  IC50: < 100 nM
MYB
  IC50: < 100 nM

## Cn1cc2c(n1)CCN(c1ccc3c(=O)n(C4CCNCC4)ccc3c1)C2 [Compound 509, 6-{2-methyl-4H,6H,7H-pyrazolo[4,3-c]pyridin-5-yl}-2-(piperidin-4-yl)isoquinolin-1-one]
Target C
  IC50: > 10000 nM
MYB
  IC50: > 10000 nM

## Cc1cn2nc(-c3ccc4c(=O)n(C5CCCNC5)ccc4c3)cc(C)c2n1 (stereo in doubt) [Compound 411, 6-{2,8-dimethylimidazo[1,2-b]pyridazin-6-yl}-2-[(3R)-piperidin-3-yl]isoquinolin-1-one]
Target C
  IC50: > 10000 nM
MYB
  IC50: 1000 to 10000 nM

## Cc1cn2nc(-c3cc(F)c4c(=O)n(C5CCNC6(CC6)C5)ccc4c3)cc(C)c2n1 (stereo not shown) [Compound 380, 6-(2,8-dimethylimidazo[1,2-b]pyridazin-6-yl)-8-fluoro-2-(4-azaspiro[2.5]octan-7-yl)isoquinolin-1(2H)-one]
Target C
  IC50: < 100 nM
MYB
  IC50: < 100 nM

## Cc1cn2cc(-c3cc(F)c4c(=O)n(C5CCNCC5)cc(C)c4c3)cc(F)c2n1 [Compound 461, 8-fluoro-6-{8-fluoro-2-methylimidazo[1,2-a]pyridin-6-yl}-4-methyl-2-(piperidin-4-yl)isoquinolin-1-one]
Target C
  IC50: 100 to 1000 nM
MYB
  IC50: < 100 nM

## Cc1cn2nc(-c3cc(F)c4c(=O)n(C5CCNC5)ccc4c3)cc(C)c2n1 (stereo in doubt) [Compound 392, (S)-6-(2,8-dimethylimidazo[1,2-b]pyridazin-6-yl)-8-fluoro-2-(pyrrolidin-3-yl)isoquinolin-1(2H)-one]
Target C
  IC50: 1000 to 10000 nM
MYB
  IC50: 100 to 1000 nM

## Cc1cn2cc(-c3cc(N)c4c(=O)n(C5CCNCC5)cnc4c3)cc(C#N)c2n1 [Compound 364, 6-[5-amino-4-oxo-3-(piperidin-4-yl)quinazolin-7-yl]-2-methylimidazo[1,2-a]pyridine-8-carbonitrile]
Target C
  IC50: > 10000 nM
MYB
  IC50: > 10000 nM

## Cn1cc2cc(-n3cnc4cc(NC5CCNCC5)ccc4c3=O)ccc2n1 [Compound 162]
MYB
  IC50: > 10000 nM

## Cc1cc(-c2ccc3c(=O)n(C4CCNCC4)cnc3c2)cc2cn(C)nc12 [Compound 174]
MYB
  IC50: < 100 nM

## Cc1cc(-c2ccc3c(=O)n(C4CCN(C)CC4)cnc3n2)cc2cn(C)nc12 [Compound 173]
MYB
  IC50: > 10000 nM
